According to PMC6442460 (Journal of chemical information and modeling, 2018):
Where two headings read alike, the source gives them in different places.

Assays:
[1] = biological target: T1, ECL (Erythrina cristagalli lectin) (Erythrina crista-galli, UniProt P83410); conditions: cited from earlier work
T1 sequence (P83410 1-239): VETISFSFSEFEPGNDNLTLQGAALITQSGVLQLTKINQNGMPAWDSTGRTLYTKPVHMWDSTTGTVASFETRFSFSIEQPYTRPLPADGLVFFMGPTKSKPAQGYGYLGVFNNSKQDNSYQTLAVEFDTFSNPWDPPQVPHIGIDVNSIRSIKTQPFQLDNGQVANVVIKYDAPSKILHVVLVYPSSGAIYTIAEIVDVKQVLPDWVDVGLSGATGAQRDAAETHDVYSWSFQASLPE

[2] = biological target: T1, ECL (Erythrina cristagalli lectin); conditions: cited from earlier work; remark: listed apart in the source
[3] = biological target: T1, ECL (Erythrina cristagalli lectin); experiment: Protein BLI inhibition; assay type: binding; conditions: for ΔG: binding free energy from BLI KD, standard deviations in parentheses; for affinity for ECL (result in words): BLI
[4] = biological target: T1, ECL (Erythrina cristagalli lectin); conditions: cited from earlier work; remark: listed apart in the source
[5] = biological target: T1, ECL (Erythrina cristagalli lectin); experiment: Isothermal titration calorimetry; assay type: binding; conditions: relative to 1

SMILES	inhibitory power relative to D-Gal (result in words) [1]	ΔG [3]	binding in glycan array screening of ECL [4]	further results
C[C@@H]1OC(O)[C@@H](O)[C@H](O)[C@@H]1O (stereo partly drawn) [L-Fuc]	poor inhibitors			
OC[C@H]1OC(O)[C@H](O)[C@@H](O)[C@H]1O (stereo partly drawn) [D-Gal, reference compound]				reference ΔG ([2]; ITC at 25 °C): –4.0 (<0.1) kcal/mol
OC[C@H]1O[C@@H](O[C@H]2[C@H](O)[C@@H](O)[C@H](O)O[C@@H]2CO)[C@H](O)[C@@H](O)[C@H]1O [ligand 1, lactose]		–4.83 (0.04) kcal/mol	nonbinders	reference ΔG ([2]; ITC at 25 °C): –4.8 (<0.1) kcal/mol; reference ΔG ([2]; ITC at 27 °C): –4.9 (0.2) kcal/mol
OC[C@H]1O[C@H](O[C@H]2[C@H](O)[C@@H](O)[C@H](O)O[C@@H]2CO)[C@H](O)[C@@H](O)[C@@H]1O [ligand 8, maltose]				affinity for ECL (result in words) [3]: Neither cellobiose (Glcβ1–4Glcβ, 7) nor maltose (Glcα1–4Glcβ, 8) shows any measurable affinity
CC(=O)N[C@H]1C(O)O[C@H](CO)[C@@H](O[C@@H]2O[C@H](CO)[C@H](O)[C@H](O)[C@H]2O)[C@@H]1O (stereo partly shown) [ligand 3, N-acetyllactosamine]		–5.66 (0.04) kcal/mol	binders	fold higher affinity of ECL [5]: about 3 fold; reference ΔG ([2]; ITC at 27 °C): –5.5 (0.1) kcal/mol
C[C@@H]1O[C@@H](O[C@H]2[C@H](O[C@H]3[C@H](O)[C@@H](O)C(O)O[C@@H]3CO)O[C@H](CO)[C@H](O)[C@@H]2O)[C@@H](O)[C@H](O)[C@@H]1O (stereo partly shown) [ligand 5, fucosylated lactose]		–5.04 (0.06) kcal/mol	nonbinders	reference ΔG ([2]; ITC at 25 °C): –4.8 (<0.1) kcal/mol
CC(=O)N[C@H]1C(O)O[C@H](CO)[C@@H](O[C@@H]2O[C@H](CO)[C@H](O)[C@H](O)[C@H]2O[C@@H]2O[C@@H](C)[C@@H](O)[C@@H](O)[C@@H]2O)[C@@H]1O (stereo partly shown) [ligand 6, fucosylated N-acetyllactosamine]		–6.21 (0.14) kcal/mol	binders	
O=C[C@H](O)[C@@H](O)[C@H](O[C@@H]1O[C@H](CO)[C@@H](O)[C@H](O)[C@H]1O)[C@H](O)CO [ligand 7, cellobiose]				affinity for ECL (result in words) [3]: Neither cellobiose (Glcβ1–4Glcβ, 7) nor maltose (Glcα1–4Glcβ, 8) shows any measurable affinity
CC(=O)N[C@H]1[C@H](O[C@H]2[C@H](O)[C@@H](NC(C)=O)C(O)O[C@@H]2CO)O[C@H](CO)[C@H](O)[C@@H]1O (stereo partly shown) [ligand 4, N,N-diacetyllactosamine]			binders	
OC[C@H]1O[C@@H](O[C@H]2[C@H](O)[C@H](O)C(O)O[C@@H]2CO)[C@H](O)[C@@H](O)[C@H]1O (stereo partly drawn) [ligand 2, epi-lactose]		–5.08 (0.02) kcal/mol		
CC(=O)N[C@H]1C(O)O[C@H](CO)[C@@H](O)[C@@H]1O (stereo partly drawn) [D-GlcNAc]	poor inhibitors			
OC[C@H]1OC(O)[C@H](O)[C@@H](O)[C@@H]1O (stereo partly drawn) [D-Glc]	poor inhibitors			
O=C[C@@H](O)[C@H](O)[C@H](O)CO [D-Ara]	poor inhibitors			
